{"source": "patent US20240174697A1", "about": "“PH-ACTIVABLE FLUORESCENT PROBES FOR TARGETING CELL ORGANELLES” (Purdue Research Foundation, priority 2021, published 2024)", "key": {"[1]": {"assay": "Absorption and fluorescence spectra at different pH solutions, pKa", "format": "physicochemical", "details": "for pH at which high fluorescence is shown: pH buffer solutions; for emission maximum: excitation 480 nm; for emission maximum / absorption maximum: pH solutions of phosphate buffer, 1% DMSO; for pKa: PBS buffer at varying pH, 1% (v/v) DMSO, probe 10 μM, room temperature", "method": "Spectrum recorded at room temperature in PBS buffer at varying pH with 1% (v/v) of DMSO, in all cases probe concentration=10 μM.\nNext, we investigated the absorption and fluorescent properties of LysoShine 1, LysoShine 2, and MitoShine (FIG. 2). The LysoShine 1 in different pH solutions of phosphate buffer (1% DMSO in 1M PBS) has an absorption centered around 500 nm and emission maximum at 505 nm with 480 nm excitation. […] We tested the mitochondrial targeting property of MitoShine (max. absorption 505 nm, max. emission 535 nm, excitation 480 nm). […] We also tested the photophysical property of the important synthetic intermediate compound 10 (absorption maximum 505 nm, max, emission 510 nm at excitation 480 nm)."}, "[2]": {"assay": "Solubility in aqueous medium / pH solutions", "format": "physicochemical", "details": "for solubility upon addition of pH solutions: final DMSO concentration 1%"}, "BV2 microglia [3]": {"system": "BV2 microglia", "assay": "LDH cytotoxicity assay on BV2 microglia", "format": "cell-based, mouse", "details": "for cytotoxicity (LDH release): 2 hour, any tested doses (1, 5, 10 μM), BV2", "method": "The dried fluorescent probes powders were resuspended in cell grade DMSO to prepare 5 mM stock solutions. This stock was used to make a 1, 5, or 10 μM dilution of the probe in cell culture media. The diluted probe solutions were filtered through 0.22 µm filters before adding to the cells.\nThe cytotoxicity of the fluorescent probes was determined using the Invitrogen™ CyQUANT™ LDH Cytotoxicity Assay kit which measures the release of Lactate dehydrogenase (LDH) from the dead and dying cells. The assay was performed per the manufacturer's protocol. Briefly, BV2 cells (5000 cells/100 μL/well) were seeded in a 96 well plate and cultured for 24 hours at 37° C. in a 5% CO2 incubator. After 24 hours, the media was removed, and the cells were treated with 1, 5, or 10 μM of the probes for 2 or 24 hours of incubation. Three additional wells were treated with the given lysis buffer for 45 minutes (positive control). After the corresponding incubation period, the total LDH release was measured using a fluorescent plate reader. The cells without any probe treatment correspond to spontaneous LDH release and were taken as negative control and the cells treated with the lysis buffer correspond to maximum LDH release. The percentage cytotoxicity of the probes was determined as follows: […]"}, "BV2 microglia [4]": {"system": "BV2 microglia", "assay": "Confocal imaging, localization of probes in BV2 microglia", "format": "cell-based, mouse", "details": "co-staining LysoTracker Red DND-99 / DAPI", "method": "BV2 mouse microglia cells were generously gifted by Dr. Linda J. Van Eldik (University of Kentucky, USA). The BV-2 cell line was developed in the lab of Dr. Elisabetta Blasi at the University of Perugia, Italy. Cells were maintained at 37° C. and 5% CO2 in DMEM/Hams F-12 50/50 Mix supplemented with 10% Fetal Bovine Serum (FBS), 1% L-Glutamine, and 1% Penicillin/Streptomycin. For imaging experiments, 70,000 cells/2 mL/well were seeded on glass coverslips (Corning #12-553-450) in 6-well plates (Corning #08-772-1B). For flow cytometry experiments, 20,000 cells/0.5 mL were seeded in 24-well plates (Corning #3526).\n(§1) The localization of the fluorescent probes was visualized using confocal microscopy. The cells were incubated with 10 μM probe for 2 hours and then the media was aspirated. The cells were then incubated with 100 nM LysoTracker (1 mM stock from Thermo #L7528) or with 0.5x MitoLite (1000-fold dilution from 500x stock of AAT Bioquest #22678) for 1.5 hours. The media was aspirated, and the cells were fixed with 4% paraformaldehyde for 10 mins followed by nuclear staining with 1 μM/mL DAPI for 5 mins. For BV2 microglia grown on glass coverslips, the coverslips were removed from the wells and transferred to glass slides with a drop of anti-fade reagent (Thermo Fisher Scientific #P36930). For primary mouse microglia grown in 35 mm glass-bottom dishes, the cells were treated with a few drops of the anti-fade reagent and taken for imaging. The images were captured on a Zeiss LSM 880 Upright Confocal microscope equipped with Plan-Apochromat 20x/0.8 objective."}, "BV2 microglia [5]": {"system": "BV2 microglia", "assay": "Cellular uptake of the fluorescent probes", "format": "in vitro ADME, mouse", "details": "BV2 microglia (FIG. 7)", "method": "FIG. 7 describes percent uptake efficiency of the fluorescent probes in BV2 microglia. Cellular uptake of the probe at different concentrations after two hours of incubation. The % uptake efficiency was determined as the percentage of probe taken up by cells out of the total amount of probe in the initial incubation solution. Bars depict n=3 data with SD.\nCellular uptake of the florescent probes was determined in-vitro as following: BV2 cells (20,000 cells/well) were seeded in a 96 well plate and cultured overnight at 37° C. in a 5% CO2 incubator. Next day, the media was removed, and the cells were treated with 1, 5, or 10 μM of the probes for 2 hours. After incubation, the supernatant was collected, and the absorbance was recorded at the respective absorbance maxima of the probe. This was compared with absorbance of the probe in media without cells. The percent cellular uptake was calculated as percentage of […]:\n% Uptake Efficiency=1-[Asupernatant×100/Aprobe]"}, "primary mouse microglia [6]": {"system": "primary mouse microglia", "assay": "Confocal imaging, localization of probes in primary microglia", "format": "cell-based", "details": "10 μM probe 2 hours, co-staining LysoTracker / MitoLite / DAPI", "method": "A detailed protocol for the isolation and culture of primary microglia from adult mouse brains is previously described^2. Briefly, CD11^+ primary microglia were isolated from adult C57BL/6 mice aged 5-7 months of age (both male and female sexes) and cultured as follows. Mice were euthanized with CO2 following the PACUC guidelines, perfused brains were removed and cut into small pieces before homogenizing them in DPBS++with 0.4% DNase-I on the tissue dissociator at 37° C. After filtering the cells through a 70 μm filter, myelin was removed two times, first using gradient centrifugation with Percoll PLUS reagent followed by the use of myelin removal beads on the magnetic column separators. After myelin removal, CD11^+ cells were selected from the single cell suspension using the CD11^+ beads as per the manufacturer's instructions. The CD11^+ cells were finally resuspended in microglia growth media, further diluted in TIC (TGF-β, IL-34, and cholesterol containing) media containing 2% FBS before seeding 0.1×10^6 cells/500 μL/well of a 24-well plate. The cells were maintained at 37° C. and 10% CO2 with half-media change every other day until the day of compound treatment (around 12-14 div). For confocal imaging experiments, around 50,000 cells/2 mL cells were sub-cultured at the center of 35 mm glass-bottom imaging dishes (FluoroDish™ #FD35).\nas §1, with “For primary mouse microglia grown in 35 mm glass-bottom dishes, the cells were treated with a few drops of the anti-fade reagent and taken for imaging. The images were captured on a Zeiss LSM 880 Upright Confocal microscope equipped with Plan-Apochromat 20x/0.8 objective.” left out"}, "primary mouse microglia [7]": {"system": "primary mouse microglia", "assay": "Flow cytometry analysis of probe fluorescence in live cells", "format": "cell-based", "details": "10 μM, 2 hours", "source_text": "FIGS. 3A-3E. […] Modal corresponds to a percentage of the maximum count. […] US Ctrl is unstained control. Gating strategy and flow plots with commercial dyes in supporting information.\nA detailed protocol for the isolation and culture of primary microglia from adult mouse brains is previously described^2. Briefly, CD11^+ primary microglia were isolated from adult C57BL/6 mice aged 5-7 months of age (both male and female sexes) and cultured as follows. Mice were euthanized with CO2 following the PACUC guidelines, perfused brains were removed and cut into small pieces before homogenizing them in DPBS++with 0.4% DNase-I on the tissue dissociator at 37° C. After filtering the cells through a 70 μm filter, myelin was removed two times, first using gradient centrifugation with Percoll PLUS reagent followed by the use of myelin removal beads on the magnetic column separators. After myelin removal, CD11^+ cells were selected from the single cell suspension using the CD11^+ beads as per the manufacturer's instructions. […]\nPrimary mouse microglia were treated with 1, 5, or 10 μM fluorescent probes for 2 hours for the cells to uptake the probe. […] Around 10-20 thousand cells were gated from the live cells in order to analyze the cellular fluorescence signal corresponding to the LysoShine/Lysotracker or Mitoshine/MitoLite probes."}}}
{"smiles": "CCOC(=O)C1=C(C)C2=C(c3ccc(N(C)C)cc3)c3c(C)c(C(=O)OCC)c(C)n3[B-](F)(F)[N+]2=C1C", "note": "[Compound 5, Diethyl 10-(4-(dimethylamino)phenyl)-5,5-difluoro-1,3,7,9-tetramethyl-5H-4λ^4, 5λ^4-dipyrrolo[1,2-c:2′,1′-f][1,3,2]diazaborinine-2,8-dicarboxylate]", "values": [{"measurement": "pH at which high fluorescence is shown", "setting": "[1]", "value": "≤ 2.0"}]}
{"smiles": "CCOC(=O)C1=C(C)C2=C(c3ccc(N(C)C)cc3)c3c(C)c(C(=O)OCC)c(C=Cc4ccc(O)cc4)n3[B-](F)(F)[N+]2=C1C", "note": "[Compound 6a, Diethyl (E)-10-(4-(dimethylamino)phenyl)-5,5-difluoro-3-(4-hydroxystyryl)-1,7,9-trimethyl-5H-414,514-dipyrrolo[1,2-c:2′,1′-f][1,3,2]diazaborinine-2,8-dicarboxylate]", "values": [{"measurement": "fluorescence spectrum in pH buffers", "setting": "[1]; pH buffers, solubility affected", "value": "did not generate a fluorescence spectrum"}, {"measurement": "solubility in aqueous medium", "setting": "[2]; aqueous medium", "value": "sparingly soluble"}]}
{"smiles": "CCOC(=O)C1=C(C)C2=C(c3ccc(NC(=O)CBr)cc3)c3c(C)c(C(=O)OCC)c(C)n3[B-](F)(F)[N+]2=C1C", "note": "[Compound 10, Diethyl 10-(4-(2-bromoacetamido)phenyl)-5,5-difluoro-1,3,7,9-tetramethyl-5H-414,514-dipyrrolo[1,2-c:2′,1′-f][1,3,2]diazaborinine-2,8-dicarboxylate]", "values": [{"measurement": "cytotoxicity to BV2 cells", "setting": "BV2 microglia [3]; BV2 cells", "value": "not cytotoxic"}, {"measurement": "localization of the probe within cell organelles", "setting": "BV2 microglia [4]", "value": "colocalized with nuclei staining dye DAPI"}, {"measurement": "emission maximum", "setting": "[1]", "value": 510, "unit": "nm"}, {"measurement": "pH at which high fluorescence is shown", "setting": "[1]", "value": "less than 3"}, {"measurement": "absorption maximum", "setting": "[1]", "value": 505, "unit": "nm"}, {"measurement": "cell permeability", "setting": "BV2 microglia [5]", "value": "cell permeable"}]}
{"smiles": "CCOC(=O)C1=C(C)C2=C(c3ccc(NC(=O)CN(CC)CC)cc3)c3c(C)c(C(=O)OCC)c(C)n3[B-](F)(F)[N+]2=C1C", "note": "[LysoShine 1, Diethyl 10-(4-(2-(diethylamino)acetamido)phenyl)-5,5-difluoro-1,3,7,9-tetramethyl-5H-4λ^4, 5λ^4-dipyrrolo[1,2-c:2′, 1′-f][1,3,2]diazaborinine-2,8-dicarboxylate]", "values": [{"measurement": "cytotoxicity (LDH release)", "setting": "BV2 microglia [3]", "value": "did not show any cytotoxicity"}, {"measurement": "localization of the probe within cell organelles", "setting": "BV2 microglia [4]", "value": "co-colocalization"}, {"measurement": "localization of the probe within cell organelles", "setting": "primary mouse microglia [6]", "value": "co-localized with the LysoTracker dye within the acidic lysosomes"}, {"measurement": "pKa", "setting": "[1]", "value": 5.4}, {"measurement": "emission maximum", "setting": "[1]", "value": 505, "unit": "nm"}, {"measurement": "pH at which high fluorescence is shown", "setting": "[1]", "value": 4}, {"measurement": "absorption maximum", "setting": "[1]", "value": "around 500 nm"}, {"measurement": "fluorescent intensity within the cells", "setting": "primary mouse microglia [7]", "value": "higher fluorescent intensity than LysoShine 2"}, {"measurement": "solubility upon addition of pH solutions", "setting": "[2]", "value": "maintains its solubility"}]}
{"smiles": "CCOC(=O)C1=C(C)C2=C(c3ccc(NC(=O)CNCCN4CCOCC4)cc3)c3c(C)c(C(=O)OCC)c(C)n3[B-](F)(F)[N+]2=C1C", "note": "[LysoShine 2, Diethyl 5,5-difluoro-1,3,7,9-tetramethyl-10-(4-(2-((2-morpholinoethyl)amino)acetamido)phenyl)-5H-4λ^4, 5λ^4-dipyrrolo[1,2-c:2′,1′-f][1,3,2]diaza-borinine-2,8-dicarboxylate]", "values": [{"measurement": "cytotoxicity (LDH release)", "setting": "BV2 microglia [3]", "value": "did not show any cytotoxicity"}, {"measurement": "localization of the probe within cell organelles", "setting": "BV2 microglia [4]", "value": "co-colocalization"}, {"measurement": "localization of the probe within cell organelles", "setting": "primary mouse microglia [6]", "value": "co-localized with the LysoTracker dye within the acidic lysosomes"}, {"measurement": "pKa", "setting": "[1]", "value": 6.0}, {"measurement": "emission maximum", "setting": "[1]", "value": 512, "unit": "nm"}, {"measurement": "pH at which high fluorescence is shown", "setting": "[1]", "value": "less than 6"}, {"measurement": "absorption maximum", "setting": "[1]", "value": 500, "unit": "nm"}, {"measurement": "solubility upon addition of pH solutions", "setting": "[2]", "value": "maintains its solubility"}]}
